Reference: PubChem BioAssay (NCI)
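Tested at 5 concentrations; 48 h exposure; 96-well plates; endpoints linearly interpolated, else capped at highest concentration. Definition used: TGI = concentration required for complete inhibition of growth.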

Experiments:
Assay in all cases: NCI-60 cell line screen, 48 h
ACHN renal = test system: ACHN renal
COLO 205 colon = test system: COLO 205 colon
HL-60(TB) leukemia = test system: HL-60(TB) leukemia
LOX IMVI melanoma = test system: LOX IMVI melanoma
MALME-3M melanoma = test system: MALME-3M melanoma
NCI-H522 lung = test system: NCI-H522 lung
RPMI-8226 leukemia = test system: RPMI-8226 leukemia
SK-MEL-5 melanoma = test system: SK-MEL-5 melanoma
SNB-75 CNS = test system: SNB-75 CNS
U251 CNS = test system: U251 CNS
UO-31 renal = test system: UO-31 renal

SMILES	TGI (ACHN renal) [µM]	TGI (COLO 205 colon) [µM]	TGI (HL-60(TB) leukemia) [µM]	TGI (LOX IMVI melanoma) [µM]	TGI (MALME-3M melanoma) [µM]	TGI (NCI-H522 lung) [µM]	TGI (RPMI-8226 leukemia) [µM]	TGI (SK-MEL-5 melanoma) [µM]	TGI (SNB-75 CNS) [µM]	TGI (U251 CNS) [µM]	TGI (UO-31 renal) [µM]
Nc1nc2c(C(=O)O)c3ccc([N+](=O)[O-])cc3c(=O)n2c2ccccc12	> 100	> 100	> 100	32.2	> 100	44.1	> 100	> 100	35.3	92.9	> 100
CC1(C)CC(=O)c2c(nc3c4c([nH]c(-c5ccc(Br)cc5)c24)CC(C)(C)C3)C1	> 100	54.2	> 100	> 100	> 100	> 100		> 100	> 100	> 100	> 100
Nc1ccc(Nc2cc(=O)[nH]c(=O)[nH]2)cc1Cl	> 100	> 100	> 100	> 100	> 100	> 100	> 100	> 100		> 100	> 100
CN(C)CCc1c2c(nc3ccccc13)C(=O)c1cccnc1C2=O	1.39	4.91	0.365	0.13	1.79	0.654	1.82	0.672	2.29	4.3	1.88
O=[N+]([O-])c1ccc(C(O)(C#CCN2CCCC2)c2ccccc2)cc1 (stereo not drawn)	> 100	37.8	36.5	43.9	30.4	54.9	61.9	42.6	> 100	> 100	> 100
O=C1N[C@@H]2C(=C[C@H](O)[C@@H](O)[C@H]2O)c2cc3c(c(O)c21)OCO3			0.0862	0.065	0.0535		0.0858	0.0774	0.0813	0.394	0.0955
CC1CC(C#N)=C2NCCN2C1=O (stereo not drawn)		37.4	> 100	> 100	> 100	> 100	> 100	28.5	> 100	> 100	> 100
CO/N=C1/c2sccc2[C@H](NC(=O)C(Cc2ccccc2)NC(=O)OC(C)(C)C)[C@@H]1O (stereo partly drawn)		> 100	> 100	> 100	> 100			> 100	> 100	> 100	> 100
O=NN(CCF)C(=O)NC1CCSCC1		> 100	> 100	> 100	> 100	> 100	> 100	> 100	> 100	> 100	> 100
Nc1ncnc2c1ncn2[C@@H]1O[C@H](COC(c2ccccc2)(c2ccccc2)c2ccccc2)[C@@H](OC(=S)Oc2ccccc2)[C@@H]1F	22.6	24.8	13.3	14.1		5.32	> 100	16.8	32.6	21.8	13.2
C=C(C)[C@@H]1CC[C@]2(C(=O)OC)CC[C@]3(C)[C@H](CC[C@@H]4[C@@]5(C)CC[C@H](O)C(C)(C)[C@@H]5CC[C@]43C)[C@@H]12	32.9		> 100	34.6	53	40.6		41.3	59	35.8	49.1
O=C(O)c1ccccc1N=Nc1c(O)c(S(=O)(=O)O)cc2cc(S(=O)(=O)O)ccc12	> 100	> 100	> 100	> 100			> 100	> 100	> 100	> 100	> 100
Cn1c(=O)n2n(c1=O)C(C)(C13CC4CC(CC(C4)C1)C3)C13CC4CC(CC1C4)CC23 (stereo not drawn)	> 100	> 100	> 100				> 100	> 100	> 100	> 100	> 100
O=C1Cc2c([nH]c3ccc(C(=O)O)cc23)-c2ccccc2N1	> 100	> 100	> 100	> 100	> 100		> 100			> 100	> 100
O=C(c1ccco1)N(C(=O)N1CCN(c2ccccc2)CC1)S(=O)(=O)c1ccccc1	62.7	82.4	45.1		99.8	41.2		68.3	62.9	72.2	53.6
CC(=O)OCC1OC(OCCCOP(=S)(OCCC#N)OCC2OC(n3ccc(N)nc3=O)C(OC(=O)c3ccccc3)C2OC(=O)c2ccccc2)C(OC(C)=O)C(OC(C)=O)C1OC(C)=O (stereo not drawn)	> 100	> 100		> 100	> 100	> 100	> 100	> 100	> 100	> 100	> 100
O=C(c1ccccc1)c1c(CC(O)c2ccncc2)n(C(=O)c2ccccc2)c2ccccc12 (stereo not drawn)	67.5	33.7	39.9		34	29.7	46.1	30.1	41.4	31.6	31.7
COC(=O)Cc1c(-c2c(CC(=O)OC)c3ccccc3n2C2OC(COC(C)=O)C(OC(C)=O)C(OC(C)=O)C2OC(C)=O)[nH]c2ccccc12 (stereo not drawn)		> 100			> 100	> 100	> 100	> 100		> 100	> 100
COc1ccc(NC(=O)C(=O)/C=C(\O)c2ccccc2)cc1		> 10	> 10	5.27	> 10		> 10	> 10	> 10		
C=C1CC[C@@H](C)[C@](C)(CCc2ccoc2)C/C=C\C=C/1C(=O)O	> 100	49.4	57	57	> 100			> 100	> 100	> 100	> 100
CSc1c(C#N)c(N)n(-c2ccc(Cl)cc2)c(=O)c1C#N		> 100	> 100	> 100	> 100	> 100	> 100	> 100	> 100	> 100	> 100
COC(=O)C(=O)Cc1nc2ccccc2o1	> 100		> 100	> 100	> 100	> 100			> 100	> 100	> 100
